What was measured:
[1] = target: human DPP1 enzyme (Homo sapiens, UniProt P53634); test: Human DPP1 Enzyme Single-Point Percent Inhibition Testing (HL-60 lysate); type: biochemical; parameters: A crude lysate of HL-60 cells (ATCC; Manassas, VA) was used as a source of human DPP1 enzyme; host or cells: HL-60 cells (crude lysate); settings: final compound concentration of 10 nM, 400 μM H-Gly-Arg-AMC, n = 1
Description: Example 98. Human DPP1 Enzyme Single-Point Percent Inhibition Testing
A crude lysate of HL-60 cells (ATCC; Manassas, VA) was used as a source of human DPP1 enzyme in the assay. Lysate was prepared in 1% Triton X-100 in PBS at a concentration of 20,000 live cells per μL of lysis buffer and was centrifuged at 16,000 rcf for 10 minutes at 4° C., after which supernatant was collected and flash-frozen in liquid nitrogen. Test articles were applied to human DPP1 enzyme in Assay Buffer (25 mM MES pH 6.0, 50 mM NaCl, 5 mM DTT) in a total reaction volume of 125 μL. 25 μL of compound diluted to 50 nM in Assay Buffer plus 5% DMSO was first added to 50 μL of HL-60 lysate diluted to contain a DPP1 enzyme concentration of roughly 1 ng/μL and allowed to pre-incubate for 10 minutes at 37° C. after which 50 μL of 1000 μM H-Gly-Arg-AMC substrate (Bachem; St. Torrance, CA) was added, giving final compound concentration of 10 nM, a final substrate concentration of 400 μM and a final DMSO concentration of 1%. Substrate cleavage was measured for 90 minutes at 37° C., with fluorescence at Excitation/Emission 350/450 nm measured every 5 minutes. DPP1 concentration was interpolated based on its activity relative to a standard curve of activated human recombinant DPP1 enzyme. Percent inhibition at 10 nM was calculated for each test article based on remaining DPP1 activity compared to enzyme activity in wells that received only vehicle control.

[2] = target: DPP1 in HL-60 cells (Homo sapiens, UniProt P53634); test: DPP1 Cell Single-Point Percent Inhibition Testing; type: cell-based; parameters: host or cells: HL-60 cells; settings: final compound concentration 5 nM, n = 1
Chain of DPP1 in HL-60 cells (P53634 25-463): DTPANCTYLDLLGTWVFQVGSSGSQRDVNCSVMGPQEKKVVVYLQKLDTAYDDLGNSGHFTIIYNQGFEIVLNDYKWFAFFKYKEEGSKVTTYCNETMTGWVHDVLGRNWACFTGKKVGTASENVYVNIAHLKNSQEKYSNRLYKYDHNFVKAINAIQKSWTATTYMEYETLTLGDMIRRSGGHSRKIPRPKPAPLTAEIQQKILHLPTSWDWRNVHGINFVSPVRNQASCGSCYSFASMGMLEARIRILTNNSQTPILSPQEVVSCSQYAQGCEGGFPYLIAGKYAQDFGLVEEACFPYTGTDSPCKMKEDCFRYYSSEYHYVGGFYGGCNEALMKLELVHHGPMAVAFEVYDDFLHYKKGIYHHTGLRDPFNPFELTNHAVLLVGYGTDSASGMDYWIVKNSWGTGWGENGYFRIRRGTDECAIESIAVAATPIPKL
Description: Example 100. DPP1 Cell Single-Point Percent Inhibition Testing
HL-60 cells (ATCC; Manassas, VA) were maintained in RPMI-1640 supplemented with 20% heat-inactivated FBS and 1× Antibiotic Antimycotic (Cytiva; Marlborough, MA). Media was changed every three to four days and cells were not allowed to exceed 1×10^6 cells per mL. Prior to assay, cells were collected by centrifugation at 500 rcf for 3 minutes, resuspended in RPMI (with no additional supplements) and counted. Cells were diluted in RPMI to a concentration of 5×10^5 live cells per mL and transferred to black 96-well plates for assay, 60 μL per well. Test articles were diluted to 25 nM in RPMI plus 0.5% DMSO, and 20 μL was added to each assay well. Compound was allowed to pre-incubate with cells with gentle shaking at 100 rpm for 60 minutes at 37° C. in a cell culture incubator maintained at 5% CO2, after which 20 μL of 500 μM H-Gly-Phe-AFC cell-permeable substrate (MP Biomedicals; Solon, OH) in RPMI was added to each well, giving final compound concentration of 5 nM, a final substrate concentration of 100 μM and a final DMSO concentration of 0.1%. Plates were returned to the incubator with shaking at 100 rpm for 30 minutes, after which fluorescence was measured at Excitation/Emission 400/505 nm. Percent Inhibition was calculated from RFU values by first subtracting background values (wells in which RPMI was substituted for cells) from each well, and then subtracting background-subtracted RFU derived from wells that received a final concentration of 10 μM brensocatib. This value represents the non-specific substrate cleavage from the HL-60 cells, and the remaining RFU should theoretically be solely the contribution of DPP1 enzyme activity. The final percent inhibition value was calculated for each test article based on remaining RFU compared to RFU from wells that received only vehicle control.

Chain of human DPP1 enzyme (P53634 25-463): as above

N#C[C@H](Cc1cc2c(cc1F)-c1ccc(F)cc1CO2)NC(=O)[C@@H]1CNCCCO1 [Compound B34]
inhibition at 0.01 µM [1]: 40 to 66.7% | inhibition at 0.005 µM [2]: ≤ 76.5%

CO[C@H]1CCO[C@H](C(=O)N[C@H](C#N)Cc2ccc(-c3ccc4c(c3)C3(CCCN(C)C3)C(=O)N4C)cc2)CNC1 (stereo partly shown) [Compound F19]
inhibition at 0.01 µM [1]: 40 to 66.7% | inhibition at 0.005 µM [2]: ≤ 76.5%

CO[C@H]1CCO[C@H](C(=O)N[C@H](C#N)Cc2ccc(-c3ccc(S(=O)(=O)N4CCC4)cc3)cc2)CNC1 [Compound F29]
inhibition at 0.01 µM [1]: ≤ 40% | inhibition at 0.005 µM [2]: ≤ 76.5%

Cn1ncc2ccc(-c3ccc(C[C@@H](C#N)NC(=O)[C@@H]4CNCCCCO4)cc3)cc21 [Compound H35]
inhibition at 0.01 µM [1]: ≤ 40% | inhibition at 0.005 µM [2]: ≤ 76.5%

C[C@@H]1NC[C@@H](C(=O)NC(C#N)Cc2cc3c(cc2F)-c2ccc4oc(=O)n(C)c4c2CO3)OC[C@H]1O (stereo partly shown) [Compound C20]
inhibition at 0.01 µM [1]: ≥ 66.7% | inhibition at 0.005 µM [2]: ≤ 76.5%

CO[C@H]1CCO[C@H](C(=O)N[C@H](C#N)Cc2ccc(-c3ccn4ccnc4c3)cc2)CNC1 [Compound H41]
inhibition at 0.01 µM [1]: ≤ 40% | inhibition at 0.005 µM [2]: ≤ 76.5%

CO[C@@H]1CCNC[C@@H](C(=O)N[C@H](C#N)Cc2ccc(-c3cc4c(C)nc(C)cn4c3)cc2F)OC1 [Compound A82]
inhibition at 0.01 µM [1]: ≥ 66.7% | inhibition at 0.005 µM [2]: 76.5 to 93.9%

CO[C@@H]1CCNC[C@@H](C(=O)N[C@H](C#N)Cc2ccc(-c3ccc(S(=O)(=O)N4CCC4)cc3)cc2)OC1 [Compound F16]
inhibition at 0.01 µM [1]: ≥ 66.7% | inhibition at 0.005 µM [2]: ≤ 76.5%

COC1CNC[C@@H](C(=O)N[C@H](C#N)Cc2ccc(-c3ccc4c(n3)CCCN4)cc2)OC1 (stereo partly shown) [Compound A87]
inhibition at 0.01 µM [1]: ≥ 66.7% | inhibition at 0.005 µM [2]: 76.5 to 93.9%

N#C[C@H](Cc1ccc(-c2ccc3c(c2)C2(CCN(C4COC4)CC2)OC3)cc1)NC(=O)[C@@H]1CNCCCCO1 [Compound 39]
inhibition at 0.01 µM [1]: ≤ 40% | inhibition at 0.005 µM [2]: ≤ 76.5%

N#C[C@H](Cc1ccc(-c2ccc(S(=O)(=O)N3CCC3)cc2)cc1)NC(=O)[C@@H]1CNCCCCO1 [Compound 46]
inhibition at 0.01 µM [1]: ≤ 40% | inhibition at 0.005 µM [2]: ≤ 76.5%

Cc1ncc(C)n2cc(-c3ccc(C[C@@H](C#N)NC(=O)[C@@H]4CNCCCO4)cc3)cc12 [Compound A140]
inhibition at 0.01 µM [1]: ≤ 40% | inhibition at 0.005 µM [2]: 76.5 to 93.9%

Cn1c(=O)oc2ccc3c(c21)COc1cc(CC(C#N)NC(=O)[C@@H]2CNCCCCO2)c(F)cc1-3 (stereo partly shown) [Compound C26]
inhibition at 0.01 µM [1]: ≤ 40% | inhibition at 0.005 µM [2]: ≤ 76.5%

C[C@@H]1NC[C@@H](C(=O)N[C@H](C#N)Cc2ccc(-c3ccn4ccnc4c3)cc2)OC[C@H]1O [Compound H42]
inhibition at 0.01 µM [1]: ≥ 66.7% | inhibition at 0.005 µM [2]: ≤ 76.5%

CO[C@H]1CCO[C@H](C(=O)N[C@H](C#N)Cc2ccc(-c3ccc4c(c3)C3(CCCN(C)C3)C(=O)N4C)cc2F)CNC1 (stereo partly shown) [Compound F25]
inhibition at 0.01 µM [1]: ≥ 66.7% | inhibition at 0.005 µM [2]: ≤ 76.5%

CO[C@@H]1CCNC[C@@H](C(=O)N[C@H](C#N)Cc2ccc(-c3ccc4nnn(C)c4c3)cc2F)OC1 [Compound H8]
inhibition at 0.01 µM [1]: ≥ 66.7% | inhibition at 0.005 µM [2]: ≤ 76.5%

CO[C@@H]1CCNC[C@@H](C(=O)N[C@H](C#N)Cc2ccc(-c3cc4c(C)nc(C)c(C)n4c3)cc2)OC1 [Compound A123]
inhibition at 0.01 µM [1]: ≥ 66.7% | inhibition at 0.005 µM [2]: ≥ 93.9%

CO[C@@H]1CCNC[C@@H](C(=O)N[C@H](C#N)Cc2cc3c(cc2F)-c2ccc(C#N)cc2CO3)OC1 [Compound B20]
inhibition at 0.01 µM [1]: ≥ 66.7% | inhibition at 0.005 µM [2]: ≥ 93.9%

CO[C@H]1CCO[C@H](C(=O)N[C@H](C#N)Cc2ccc(-c3cc4c(C)nc(C)c(C)n4c3)cc2)CNC1 [Compound A129]
inhibition at 0.01 µM [1]: 40 to 66.7% | inhibition at 0.005 µM [2]: 76.5 to 93.9%

COC1CNC[C@@H](C(=O)N[C@H](C#N)Cc2ccc(-c3ccc4cnn(C5CCN(C)CC5)c4c3)cc2F)OC1 (stereo partly shown) [Compound H10]
inhibition at 0.01 µM [1]: ≥ 66.7% | inhibition at 0.005 µM [2]: ≤ 76.5%

Cc1cn2cc(-c3ccc(C[C@@H](C#N)NC(=O)[C@@H]4CN[C@@H](C)[C@@H](O)CO4)c(F)c3)cc2c(C)n1 [Compound A106]
inhibition at 0.01 µM [1]: ≤ 40% | inhibition at 0.005 µM [2]: ≤ 76.5%

CO[C@@H]1CCNC[C@@H](C(=O)N[C@H](C#N)Cc2ccc(-c3cc4c(C)ncc(C)n4c3)cc2)OC1 [Compound A122]
inhibition at 0.01 µM [1]: ≥ 66.7% | inhibition at 0.005 µM [2]: 76.5 to 93.9%

C[C@@H]1NC[C@@H](C(=O)N[C@H](C#N)Cc2ccc(-c3ccc4c(n3)CCCN4)cc2F)OC[C@H]1O [Compound A101]
inhibition at 0.01 µM [1]: ≥ 66.7% | inhibition at 0.005 µM [2]: 76.5 to 93.9%

CO[C@@H]1CCNC[C@@H](C(=O)N[C@H](C#N)Cc2ccc(-c3ccc4c(n3)CCCN4)cc2F)OC1 [Compound A83]
inhibition at 0.01 µM [1]: ≥ 66.7% | inhibition at 0.005 µM [2]: 76.5 to 93.9%

CN1CCCC2(C1)C(=O)N(C)c1ccc(-c3ccc(C[C@@H](C#N)NC(=O)[C@@H]4CNCCCCO4)c(F)c3)cc12 (stereo partly shown) [Compound 41]
inhibition at 0.01 µM [1]: 40 to 66.7% | inhibition at 0.005 µM [2]: ≤ 76.5%

CO[C@H]1CCO[C@H](C(=O)N[C@H](C#N)Cc2ccc(-c3ccc(S(=O)(=O)N4CCC4)cc3)cc2F)CNC1 [Compound F30]
inhibition at 0.01 µM [1]: 40 to 66.7% | inhibition at 0.005 µM [2]: ≤ 76.5%

CO[C@H]1CCO[C@H](C(=O)N[C@H](C#N)Cc2ccc(-c3ccc4c(c3)C3(CC4)CCN(C)CC3)cc2F)CNC1 [Compound F24]
inhibition at 0.01 µM [1]: ≥ 66.7% | inhibition at 0.005 µM [2]: ≤ 76.5%

CO[C@@H]1CCNC[C@@H](C(=O)N[C@H](C#N)Cc2ccc(-c3ccc4c(c3)C3(CCN(C)C3)OC4=O)cc2)OC1 (stereo partly shown) [Compound F8]
inhibition at 0.01 µM [1]: ≥ 66.7% | inhibition at 0.005 µM [2]: ≤ 76.5%

CO[C@H]1CCO[C@H](C(=O)N[C@H](C#N)Cc2ccc(-c3ccc4nnn(C)c4c3)cc2)CNC1 [Compound H18]
inhibition at 0.01 µM [1]: ≤ 40% | inhibition at 0.005 µM [2]: ≤ 76.5%

CO[C@H]1CCO[C@H](C(=O)N[C@H](C#N)Cc2ccc(-c3ccc(CN4CCN(C)CC4)cc3)cc2)CNC1 [Compound F23]
inhibition at 0.01 µM [1]: ≤ 40% | inhibition at 0.005 µM [2]: ≤ 76.5%

CCN1C(=O)Cc2ccc(-c3ccc(C[C@@H](C#N)NC(=O)[C@@H]4CNCC[C@@H](OC)CO4)cc3)cc21 [Compound G1]
inhibition at 0.01 µM [1]: ≥ 66.7% | inhibition at 0.005 µM [2]: ≤ 76.5%

COC1CNC[C@@H](C(=O)N[C@H](C#N)Cc2ccc(-c3ccn4ccnc4c3)cc2)OC1 (stereo partly shown) [Compound H40]
inhibition at 0.01 µM [1]: 40 to 66.7% | inhibition at 0.005 µM [2]: ≤ 76.5%

CO[C@@H]1CCNC[C@@H](C(=O)N[C@H](C#N)Cc2ccc(-c3ccc4c(c3)C3(CCCN(C)C3)C(=O)N4C)cc2F)OC1 (stereo partly shown) [Compound F12]
inhibition at 0.01 µM [1]: ≥ 66.7% | inhibition at 0.005 µM [2]: ≤ 76.5%

CCN1C(=O)Cc2ccc(-c3ccc(C[C@@H](C#N)NC(=O)[C@@H]4CNCC(OC)CO4)cc3)cc21 (stereo partly shown) [Compound G3]
inhibition at 0.01 µM [1]: ≥ 66.7% | inhibition at 0.005 µM [2]: 76.5 to 93.9%

N#C[C@H](Cc1ccc(-c2ccc3c(c2)C2(CCN(C4CCC4)CC2)OC3)cc1F)NC(=O)[C@@H]1CNCCCCO1 [Compound 44]
inhibition at 0.01 µM [1]: 40 to 66.7% | inhibition at 0.005 µM [2]: ≤ 76.5%

CO[C@@H]1CCNC[C@@H](C(=O)NC(C#N)Cc2cc3c(cc2F)-c2cc4c(cc2CO3)oc(=O)n4C)OC1 (stereo partly shown) [Compound C11]
inhibition at 0.01 µM [1]: ≥ 66.7% | inhibition at 0.005 µM [2]: 76.5 to 93.9%

CO[C@@H]1CCNC[C@@H](C(=O)N[C@H](C#N)Cc2ccc(-c3cnc4c(n3)CCCC4)cc2F)OC1 [Compound A85]
inhibition at 0.01 µM [1]: ≥ 66.7% | inhibition at 0.005 µM [2]: ≤ 76.5%

N#C[C@H](Cc1ccc(-c2cnc3c(n2)CCCC3)cc1F)NC(=O)[C@@H]1CNCCCO1 [Compound A120]
inhibition at 0.01 µM [1]: ≤ 40% | inhibition at 0.005 µM [2]: ≤ 76.5%

— patent publication US20260008760A1, “DIPEPTIDYL PEPTIDASE 1 INHIBITORS AND USES THEREOF” (Insmed Incorporated, priority 2024, published 2026)
